Positions count from the first letter of the chain named. “Also recorded” adds a separate entry of the source. One block for each molecule: values may come before it.
Tests used:
[1] = biological target: T1, purified PKG-1 (Bos taurus, UniProt P00516); test: In vitro kinase assay of purified PKG-1 after peroxynitrite or DETA NONOate; assay type: biochemical; settings: even at 100 μM, 30 min in dark at RT
T1 construct: purchased Promega
T1 sequence (P00516 1-671): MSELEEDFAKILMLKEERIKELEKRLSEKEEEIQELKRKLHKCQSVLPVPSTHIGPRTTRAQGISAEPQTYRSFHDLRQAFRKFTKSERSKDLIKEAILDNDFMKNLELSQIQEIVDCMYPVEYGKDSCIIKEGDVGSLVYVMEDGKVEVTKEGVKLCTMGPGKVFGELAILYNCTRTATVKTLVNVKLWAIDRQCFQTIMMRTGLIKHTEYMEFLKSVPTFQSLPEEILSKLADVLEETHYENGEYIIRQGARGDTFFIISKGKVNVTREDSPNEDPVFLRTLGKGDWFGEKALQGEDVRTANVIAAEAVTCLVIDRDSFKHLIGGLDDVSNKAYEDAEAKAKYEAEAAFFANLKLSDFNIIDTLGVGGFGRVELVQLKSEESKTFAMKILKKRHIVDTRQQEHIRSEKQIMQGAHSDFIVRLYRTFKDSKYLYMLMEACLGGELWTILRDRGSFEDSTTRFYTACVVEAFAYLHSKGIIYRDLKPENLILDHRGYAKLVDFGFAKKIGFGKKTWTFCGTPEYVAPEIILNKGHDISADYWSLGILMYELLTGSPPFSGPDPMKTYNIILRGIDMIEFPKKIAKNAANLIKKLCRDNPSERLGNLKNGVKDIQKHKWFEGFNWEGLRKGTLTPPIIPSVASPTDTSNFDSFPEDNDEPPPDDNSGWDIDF
Protocol: (§1) PKG Kinase Assay. In vitro activity of PKG was determined by measuring the transfer of the [g-^32P] phosphate group of ATP to the specific PKG substrate, BPDEtide (Calbiochem) in the absence or presence of exogenous 2.5 mM cGMP as described in Example 13. PKG activity is expressed as picmoles of ^32P incorporated into PKG substrate per min per microgram protein.
To address the role of peroxynitrite in the mechanism of the observed impairment of PKG activity, we treated human pulmonary artery smooth muscle cells with 3-morpholinosydnonimine (SIN-1), the superoxide and NO donor that forms peroxynitrite simultaneously (30). […] FIG. 9A relates to dose-dependent impairment of PKG activity by peroxynitrite. Purified […] (Promega) was incubated with peroxynitrite at indicated concentrations for 14 min at RT or with DETA NONOate (NONOate) for 30 min in dark at RT. Kinase activity was then assayed. Data is expressed mean+/−SD (n=3). *, P<0.05 versus control (0 μM). FIG. 9B relates to screening of PKG-1a mutants with in vitro kinase assay. At 48 hr post-transfection, myc-tagged WT and PKG-1a mutants were immunoprecipitated with anti-myc beads and aliquoted for incubation with either peroxynitrite (100 μM) or the same amount of 0.1 N NaOH only (CTL). […] PKG activity was expressed as pmoles/min/μg cell lysates. […] Data are expressed as mean±SD (n=3), *, P<0.05 versus either PKG-1a mutant. […]

[2] = biological target: T2, PKG (Homo sapiens, UniProt Q13976); test: PKG kinase activity in human pulmonary artery smooth muscle cells after SIN-1; assay type: cell-based
T2 construct: endogenous in cells; host or cells: primary human pulmonary artery smooth muscle cells
T2 sequence (Q13976 1-671): T1 sequence (P00516 1-671) with K265T, N275S
Protocol: In vitro activity of PKG was determined by measuring the transfer of the [g-32P] phosphate group of ATP to the specific PKG substrate, BPDEtide (Calbiochem) in the absence or presence of exogenous 2.5 mM cGMP. The assay was carried out in a total volume of […] containing 150 mM BPDEtide, 10 mM HEPES, 35 mM b-glycerophosphate, 4 mM magnesium acetate, 5 mM PKI (a synthetic protein kinase A inhibitor, Calbiochem), 0.5 mM EDTA, 200 mM ATP, and 2 mCi of [g-32P]ATP (specific activity 3,000 Ci/mmol, GE Amersham). The mixture was incubated at […] for 12 min and terminated by spotting […] aliquots of mixture on phosphocellulose papers (P81, Whatman). The papers were then washed and counted in a liquid scintillation counter. PKG activity is expressed as picmoles of 32P incorporated into PKG substrate per minute per milligram protein.
(§2) To test the hypothesis that peroxynitrite modifies PKG through tyrosine nitration thereby impairing kinase activity, we treated subconfluent human pulmonary artery smooth muscle cells with 3-morpholinosydnonimine (SIN-1), a donor of superoxide and NO, which spontaneously forms peroxynitrite at the two concentrations used. […] Each cell lysate (50 mg) was used for immunoprecipitation with an anti-PKG-I antibody and tyrosine nitration of PKG-I was detected by Western blot with anti-nitrotyrosine antibody (NT). Each lysate (15 mg) was used for direct immunoblotting with anti-PKG-I and anti-GAPDH, respectively. CTL, control. […] Data are shown as mean±SD (n=3). *, P<0.001 versus CTL; **, P<0.001 versus CTL.
as §1

[3] = biological target: T3, PKG-I (Homo sapiens, UniProt Q13976); test: PKG-I tyrosine nitration in human pulmonary artery smooth muscle cells after SIN-1 (IP / anti-nitrotyrosine Western blot); assay type: cell-based
T3 construct: primary cultures of human pulmonary artery smooth muscle cells were immunoprecipitated overnight with anti-PKG-I; endogenous in cells; host or cells: primary human pulmonary artery smooth muscle cells
T3 sequence (Q13976 1-671): T1 sequence (P00516 1-671) with K265T, N275S
Protocol: Western blot analyses were performed using anti-Cav1 (1:1000, Santa Cruz Biotechnology), anti-eNOS (1:1000, Upstate Biotechnology), and anti-PKG-I (1 mg/ml, a generous gift from Dr. X-P. Du at Department of Pharmacology, University of Illinois at Chicago). The same blots were reprobed with either anti-a-actin (1:400, Santa Cruz Biotechnology) or anti-GAPDH (1:2000, Santa Cruz Biotechnology) as a loading control. To detect PKG-I tyrosine nitration, protein lysates from either mouse lungs or primary cultures of human pulmonary artery smooth muscle cells were immunoprecipitated overnight with anti-PKG-I and then probed with anti-nitrotyrosine (1:2500, Cayman Chemical).
as §2
Molecular Analysis. […]

[4] = tested on: Cav1−/− mice; test: RVSP in Cav1−/− mice with PH; assay type: in vivo, mouse; settings: 8 month old Cav1−/− mice; 5 mg/kg, i.p. daily for 6 wk
Protocol: RVSP was determined as follows. Briefly, following anesthesia, mice were prepared for catheterization. A 1.4 F pressure transducer catheter (Millar Instruments) was carefully inserted via the right external jugular vein into the right ventricle to obtain measurements of RVSP using the Acknowledge software (Biopac Systems, Inc.). To determine lung vascular resistance, mice were anesthetized and prepared for perfusion. Pulmonary arterial (Ppa) and venous (Pv) pressures were monitored continuously through the pulmonary arterial and left atrial cannula, which were connected to a pressure transducer. […] Ppa was measured at steady-state and was plotted against the flow, which was measured by weighing the effluent collected over a one-minute period. […]
To determine whether pharmacological inhibition of eNOS in Cav1^−/− mice can reverse PH, we administered N-Nitro-L-Arginine Methyl Ester (L-NAME), a NOS inhibitor, to Cav1^−/− mice following onset of PH. […] Data are expressed as mean±SD (n=5-7). *, P=0.023 WT versus Cav1^−/−;**, P=0.015 Cav-L versus Cav1^−/−; #, P>0.5 Cav-D versus Cav1^−/−. […] Data are expressed as mean±SD (n=5-7). *, P=0.002 WT versus Cav1^−/−; **, P=0.013 Cav-L versus Cav1^−/−; #, P=0.8 Cav-D versus Cav1^−/−.
Hemodynamic Measurements. RVSP was determined with a 1.4 F pressure transducer catheter (Millar Instruments) and the Acknowledge software (Biopac Systems, Inc.). […]

PKG activity [1]: failed to suppress PKG activity
Molecule: NCCN(CCN)/[N+]([O-])=N/O [DETA NONOate]

PKG kinase activity ([2]; SIN-1 at 0.1 mM): did not decrease PKG kinase activity
PKG tyrosine nitration ([3]; SIN-1 at 0.1 mM): only minimal PKG tyrosine nitration
Molecule: N=c1c[n+](N2CCOCC2)[n-]o1 [SIN-1, 3-morpholinosydnonimine]
PKG kinase activity after addition of cGMP ([2]; SIN-1 30 min, after addition of 2.5 mM of cGMP): significant decrease of PKG activity; also recorded: significantly decreased PKG kinase activity; also recorded: impaired kinase activity
PKG kinase activity, basal ([2]; SIN-1 30 min, basal state): significant decrease of PKG activity; also recorded: significantly decreased PKG kinase activity; also recorded: impaired kinase activity
PKG tyrosine nitration ([3]; SIN-1 concentration, 30 min): significant PKG tyrosine nitration; also recorded: marked PKG tyrosine nitration; also recorded: PKG1 tyrosine nitration

Molecule: manganese (III) tetrakis (1-methyl-4-pyridyl) porphyrin pentachloride [MnTMPyP]
RVSP [4]: reduced RVSP

Source: patent US20110171193A1, “COMPOSITIONS AND METHODS FOR TREATING PULMONARY HYPERTENSION” (THE BOARD OF TRUSTEES OF THE UNIVERSITY OF ILLINOIS, priority 2008, published 2011)
